Test results: patent US20230331777A1, “NOVEL PEPTOID COMPOUNDS THAT BIND TO CELL RECEPTOR ACE2 AND PREVENT VIRUS ENTRY INTO CELLS” (priority 2020, published 2023)
Starred links: 1 amine or outer side, 2 acyl side, 3 side chain; linkers in the order of their positions; H or OH if unused. Positions of bridges follow the written chain, without caps; N, C: chain ends. Non-standard residues stand in square brackets, D forms with d. Residues, ends and D or L forms follow the SMILES beside them. Chains are numbered I, II in the order given. N(4-MeOBn)Gly = COc1ccc(CNCC(=O)O)cc1; N((CH2)3OiPr)Gly = CC(C)OCCCNCC(=O)O; X1 = CC(c1ccccc1)N(CC(=O)[*:2])[*:1]; NAllylGly = C=CCNCC(=O)O; Nleu = CC(C)CNCC(=O)O; Nme = COCCNCC(=O)O

System: SARS-CoV-2 D614G pseudovirus
Assay type: cell-based, human H1299 cells

SMILES | SARS-CoV-2 mutant pseudovirus infection
C=CCN(CC(=O)N(CC(=O)NC(CCCCN)C(=O)NC(CCSC)C(=O)NCCCCC(NC(=O)C(CCSC)NC(=O)C(CCCCN)NC(=O)CN(C(=O)CN(CC=C)C(=O)CN(Cc1ccc(OC)cc1)C(=O)CN(C(=O)CN(CCOC)C(=O)CNCC(C)C)C(C)c1ccccc1)C(C)c1ccccc1)C(N)=O)C(C)c1ccccc1)C(=O)CN(Cc1ccc(OC)cc1)C(=O)CN(C(=O)CN(CCOC)C(=O)CNCC(C)C)C(C)c1ccccc1 (centres unmarked) [ACE2P1D1] (I: H-[Nleu][Nme][X1][N(4-MeOBn)Gly][NAllylGly][X1]KMK-NH2 / II: H-[Nleu][Nme][X1][N(4-MeOBn)Gly][NAllylGly][X1]KM; amide I:9-II:C; configuration not given here) | effective in inhibiting SARS-CoV-2 mutant pseudovirus infection
COCCN(CC(=O)NC(CCCCN)C(=O)NC(CCSC)C(=O)NCCCCC(NC(=O)C(CCSC)NC(=O)C(CCCCN)NC(=O)CN(CCOC)C(=O)CN(CC(C)C)C(=O)CN(CC(C)C)C(=O)CN(CCCOC(C)C)C(=O)CN(Cc1ccc(OC)cc1)C(=O)CNCc1ccc(OC)cc1)C(N)=O)C(=O)CN(CC(C)C)C(=O)CN(CC(C)C)C(=O)CN(CCCOC(C)C)C(=O)CN(Cc1ccc(OC)cc1)C(=O)CNCc1ccc(OC)cc1 (centres unmarked) [ACE2P2D1] (I: H-[N(4-MeOBn)Gly][N(4-MeOBn)Gly][N((CH2)3OiPr)Gly][Nleu][Nleu][Nme]KMK-NH2 / II: H-[N(4-MeOBn)Gly][N(4-MeOBn)Gly][N((CH2)3OiPr)Gly][Nleu][Nleu][Nme]KM; amide I:9-II:C; configuration not given here) | effective in inhibiting SARS-CoV-2 mutant pseudovirus infection
